Reference: ChEMBL document CHEMBL1201862, “PubChem BioAssay data set” (2004)
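Method: 48-hour compound exposure of cells in 96-well plates, five concentrations, linear interpolation of endpoints. GI50 marks 50% less growth.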 Active and inactive are the calls of the source. No stated cut-off is given here; in the data, active = GI50 up to about 1.1 µM and inactive = higher.

Legend:
Experiment in all cases: NCI tumour cell line growth inhibition, 48 h
U-251 = tested on: U-251
SK-MEL-5 = tested on: SK-MEL-5
NCI-H226 = tested on: NCI-H226
MOLT-4 = tested on: MOLT-4
786-0 = tested on: 786-0
SN12C = tested on: SN12C
RXF 393 = tested on: RXF 393
SK-MEL-28 = tested on: SK-MEL-28
IGROV-1 = tested on: IGROV-1
OVCAR-5 = tested on: OVCAR-5
COLO 205 = tested on: COLO 205
HOP-92 = tested on: HOP-92
UACC-62 = tested on: UACC-62
HCT-15 = tested on: HCT-15
ACHN = tested on: ACHN
NCI-H522 = tested on: NCI-H522
HT-29 = tested on: HT-29

Row | Structure (SMILES) | GI50 (U-251) | GI50 (SK-MEL-5) | GI50 (NCI-H226) | GI50 (MOLT-4) | GI50 (786-0) | GI50 (SN12C) | GI50 (RXF 393) | GI50 (SK-MEL-28) | GI50 (IGROV-1) | GI50 (OVCAR-5) | GI50 (COLO 205) | GI50 (HOP-92) | GI50 (UACC-62) | GI50 (HCT-15) [µM] | GI50 (ACHN) | GI50 (NCI-H522) | GI50 (HT-29)
1 | Cc1nc2c(o1)/C(=N\c1ccccc1)c1nc(C)oc1/C2=N/c1ccccc1 | 17.7 µM (inactive) | 1.06 µM (active) | 21.4 µM (inactive) | 27.5 µM (inactive) | 17.7 µM (inactive) | 17.5 µM (inactive) | 20.6 µM (inactive) | 23.9 µM (inactive) | 4.73 µM (inactive) | 34 µM (inactive) | 33.1 µM (inactive) | 24 µM (inactive) | 18.8 µM (inactive) | 23.4 | 17.9 µM (inactive) | 21.7 µM (inactive) | 20.4 µM (inactive)
2 | COc1cc([C@@H]2c3cc4c(cc3[C@@H](NCc3ccccc3F)C3COC(=O)[C@@H]32)OCO4)cc(OC)c1O (stereo not given in full) | 1.89 µM (inactive) | 0.828 µM (active) | 2.06 µM (inactive) | 0.425 µM (active) | 2.81 µM (inactive) | 2.62 µM (inactive) | 5.18 µM (inactive) | 12.2 µM (inactive) | 1.11 µM (active) | 24.8 µM (inactive) | 17.7 µM (inactive) | 4.04 µM (inactive) | 0.463 µM (active) | 1.63 | 1.11 µM (active) | 0.361 µM (active) | 4.78 µM (inactive)
3 | COc1ccc(-c2cc(O)c3cc(OC)ccc3n2)cc1 | – | > 100 µM (inactive) | > 100 µM (inactive) | > 100 µM (inactive) | > 100 µM (inactive) | > 100 µM (inactive) | > 100 µM (inactive) | > 100 µM (inactive) | > 100 µM (inactive) | > 100 µM (inactive) | > 100 µM (inactive) | > 100 µM (inactive) | > 100 µM (inactive) | – | > 100 µM (inactive) | > 100 µM (inactive) | > 100 µM (inactive)
4 | CS(=O)(=O)c1nc(N)nc2nc[nH]c12 | > 100 µM (inactive) | > 100 µM (inactive) | > 100 µM (inactive) | > 100 µM (inactive) | > 100 µM (inactive) | > 100 µM (inactive) | > 100 µM (inactive) | > 100 µM (inactive) | > 100 µM (inactive) | > 100 µM (inactive) | > 100 µM (inactive) | > 100 µM (inactive) | > 100 µM (inactive) | > 100 | > 100 µM (inactive) | 74.8 µM (inactive) | > 100 µM (inactive)
5 | [N-]=[N+]=NC(CCl)c1cn([C@H]2C[C@H](O)[C@@H](CO)O2)c(=O)[nH]c1=O (stereo not given in full) | > 100 µM (inactive) | > 100 µM (inactive) | > 100 µM (inactive) | > 100 µM (inactive) | > 100 µM (inactive) | > 100 µM (inactive) | > 100 µM (inactive) | > 100 µM (inactive) | > 100 µM (inactive) | > 100 µM (inactive) | > 100 µM (inactive) | > 100 µM (inactive) | > 100 µM (inactive) | > 100 | > 100 µM (inactive) | > 100 µM (inactive) | > 100 µM (inactive)
6 | Cc1cc(NS(=O)(=O)c2ccc(Nc3c4ccccc4nc4c(C(=O)N5CCN(CCO)CC5)cccc34)cc2)no1 | > 100 µM (inactive) | > 100 µM (inactive) | > 100 µM (inactive) | 83.2 µM (inactive) | > 100 µM (inactive) | > 100 µM (inactive) | 22.3 µM (inactive) | > 100 µM (inactive) | > 100 µM (inactive) | > 100 µM (inactive) | > 100 µM (inactive) | > 100 µM (inactive) | > 100 µM (inactive) | > 100 | > 100 µM (inactive) | 79.4 µM (inactive) | > 100 µM (inactive)
